Source: patent US20070128217A1 (priority 2003, published 2007)

Assays:
[1] = tested on: antibodies in sera from SARS patients (sera 1a, 1b, 2, 6, 37, 62, London, SARS-yellow, SARS-green); format: binding, human; parameters: Binding of serum 6 to linear peptides of protein X1 of SARS-CoV Urbani / Binding of serum 37 to linear peptides of protein X1 of SARS-CoV Urbani / Binding of serum 6 to looped/cyclic peptide (PEPSCAN-ELISA) / Binding of serum 37 to looped/cyclic peptide (PEPSCAN-ELISA) / Binding of serum 37 to looped/cyclic peptides of protein X1 of SARS-CoV Urbani / Binding of serum 6 to linear peptides of protein X2 / Binding of serum 37 to linear peptides of protein X2 / Binding of serum 37 to looped/cyclic peptides of protein X2 of SARS-CoV Urbani / Binding of serum 6 to linear peptides of protein M of SARS-CoV Urbani / Binding of serum 37 to linear peptides of protein M of SARS-CoV Urbani / Binding of serum 6 to looped/cyclic peptides of protein M of SARS-CoV Urbani / Binding of serum 37 to looped/cyclic peptides of protein M of SARS-CoV Urbani / Binding of serum 6 to linear peptides of protein X3 of SARS-CoV Urbani / Binding of serum 37 to linear peptides of protein X3 of SARS-CoV Urbani / Binding of serum 37 to looped/cyclic peptides of protein X3 of SARS-CoV Urbani / Binding of serum 6 to linear peptides of protein X4 of SARS-CoV Urbani / Binding of serum 37 to linear peptides of protein X4 of SARS-CoV Urbani / Binding of serum 37 to looped/cyclic peptides of protein X4 of SARS-CoV Urbani / Binding of serum 6 to linear peptides of protein X5 of SARS-CoV Urbani / Binding of serum 37 to linear peptides of protein X5 of SARS-CoV Urbani / Binding of serum 37 to looped/cyclic peptides of protein X5 of SARS-CoV Urbani / Binding of serum 6 to linear peptides of protein N of SARS-CoV Urbani / Binding of serum 37 to linear peptides of protein N of SARS-CoV Urbani / Binding of serum 6 to linear peptide (PEPSCAN-ELISA) / Binding of serum 1a to looped/cyclic peptides of protein N of SARS-CoV Urbani / Binding of serum 1b to looped/cyclic peptides of protein N of SARS-CoV Urbani / Binding of serum 2 to looped/cyclic peptides of protein N of SARS-CoV Urbani / Binding of serum 6 to looped/cyclic peptides of protein N of SARS-CoV Urbani / Binding of serum 37 to looped/cyclic peptides of protein N of SARS-CoV Urbani / Binding of serum 62 to looped/cyclic peptides of protein N of SARS-CoV Urbani / Binding of serum London to looped/cyclic peptides of protein N of SARS-CoV Urbani / Binding of serum SARS-green to looped/cyclic peptides of protein N of SARS-CoV Urbani: unit not given here
[2] = tested on: control sera (pooled serum of ten healthy LUMC hospital workers; commercial negative donor pooled serum from the Dutch bloodbank); format: binding, human; parameters: Binding of Control serum LUMC to linear peptides / Binding of Control serum Blood-bank to linear peptides / Binding of Control serum LUMC to looped peptides / Binding of Control Serum Blood-Bank to Looped peptides / Binding of Control serum LUMC to linear peptides of the protein M of SARS-CoV Urbani / Binding of Control serum Blood-bank to linear peptides of the protein M of SARS-CoV Urbani / Binding of Control serum LUMC to looped peptides of the protein M of SARS-CoV Urbani / Binding of Control Serum Blood-Bank to Looped peptides of the protein M of SARS-CoV Urbani: unit not given here
[3] = tested on: rabbit serum obtained by immunizing a rabbit with the SARS-CoV strain Frankfurt 1; format: binding; parameters: Binding of a rabbit serum to linear peptides / Binding of a rabbit serum to looped peptides / Rabbit serum linear peptides / Rabbit serum looped peptides / Binding of a rabbit serum to linear peptides of protein N of SARS-CoV Urbani (Rabbit serum linear peptides) / Binding of a rabbit serum to looped/cyclic peptides of protein N of SARS-CoV Urbani (Rabbit serum looped peptides): unit not given here

ALVFLILCFTIKRKT
0.9: Binding of serum 6 to looped/cyclic peptides of protein X4 of SARS-CoV Urbani [1]
0.8: Binding of serum 1a to looped/cyclic peptides of protein X4 of SARS-CoV Urbani [1] | Binding of serum 2 to looped/cyclic peptides of protein X4 of SARS-CoV Urbani [1] | Binding of serum 62 to linear peptides of protein X4 of SARS-CoV Urbani [1] | Binding of serum London to linear peptides of protein X4 of SARS-CoV Urbani [1] | Binding of Control Serum Blood-Bank to Looped peptides [2] | Binding of Control serum Blood-bank to linear peptides [2]
0.6: Binding of serum 1b to linear peptides of protein X4 of SARS-CoV Urbani [1] | Binding of serum 37 to looped/cyclic peptides of protein X4 of SARS-CoV Urbani [1] | Binding of serum SARS-yellow to looped/cyclic peptides of protein X4 of SARS-CoV Urbani [1] | Binding of Control serum LUMC to linear peptides [2] | Rabbit serum linear peptides [3] | Rabbit serum looped peptides [3]
0.7: Binding of serum 1a to linear peptides of protein X4 of SARS-CoV Urbani [1] | Binding of serum 2 to linear peptides of protein X4 of SARS-CoV Urbani [1] | Binding of serum 6 to linear peptides of protein X4 of SARS-CoV Urbani [1] | Binding of serum 37 to linear peptides of protein X4 of SARS-CoV Urbani [1] | Binding of serum 62 to looped/cyclic peptides of protein X4 of SARS-CoV Urbani [1] | Binding of serum SARS-green to linear peptides of protein X4 of SARS-CoV Urbani [1] | Binding of Control serum LUMC to looped peptides [2]
1.1: Binding of serum London to looped/cyclic peptides of protein X4 of SARS-CoV Urbani [1]
0.5: Binding of serum 1b to looped/cyclic peptides of protein X4 of SARS-CoV Urbani [1] | Binding of serum SARS-green to looped/cyclic peptides of protein X4 of SARS-CoV Urbani [1]
0.4: Binding of serum SARS-yellow to linear peptides of protein X4 of SARS-CoV Urbani [1]

AMACIVGLMWLSYFV
0.3: Binding of Control serum LUMC to linear peptides of the protein M of SARS-CoV Urbani [2]
0.9: Binding of serum 6 to looped/cyclic peptides of protein M of SARS-CoV Urbani [1]
0.5: Binding of serum 1b to linear peptides of protein M of SARS-CoV Urbani [1] | Binding of serum 62 to looped/cyclic peptides of protein M of SARS-CoV Urbani [1]
0.6: Binding of serum 2 to linear peptides of protein M of SARS-CoV Urbani [1] | Binding of serum 2 to looped/cyclic peptides of protein M of SARS-CoV Urbani [1] | Binding of serum 37 to linear peptides of protein M of SARS-CoV Urbani [1] | Binding of serum 37 to looped/cyclic peptides of protein M of SARS-CoV Urbani [1] | Binding of serum 62 to linear peptides of protein M of SARS-CoV Urbani [1] | Binding of serum SARS-yellow to looped/cyclic peptides of protein M of SARS-CoV Urbani [1] | Binding of Control Serum Blood-Bank to Looped peptides of the protein M of SARS-CoV Urbani [2] | Binding of Control serum Blood-bank to linear peptides of the protein M of SARS-CoV Urbani [2]
0.7: Binding of serum 1a to linear peptides of protein M of SARS-CoV Urbani [1] | Binding of serum 1a to looped/cyclic peptides of protein M of SARS-CoV Urbani [1] | Binding of serum 1b to looped/cyclic peptides of protein M of SARS-CoV Urbani [1] | Binding of Control serum LUMC to looped peptides of the protein M of SARS-CoV Urbani [2]
0.2: Binding of serum London to looped/cyclic peptides of protein M of SARS-CoV Urbani [1] | Binding of serum SARS-green to linear peptides of protein M of SARS-CoV Urbani [1]
0.4: Binding of serum 6 to linear peptides of protein M of SARS-CoV Urbani [1] | Binding of serum London to linear peptides of protein M of SARS-CoV Urbani [1] | Binding of serum SARS-green to looped/cyclic peptides of protein M of SARS-CoV Urbani [1] | Rabbit serum linear peptides [3]
0.1: Binding of serum SARS-yellow to linear peptides of protein M of SARS-CoV Urbani [1] | Rabbit serum looped peptides [3]

AQFLYLYALIYFLQC
0.4: Binding of serum 2 to looped/cyclic peptide (PEPSCAN-ELISA) [1] | Binding of serum 37 to looped/cyclic peptide (PEPSCAN-ELISA) [1] | Binding of serum 62 to linear peptides of protein X1 of SARS-CoV Urbani [1] | Binding of serum SARS-yellow to linear peptides of protein X1 of SARS-CoV Urbani [1] | Binding of Control Serum Blood-Bank to Looped peptides [2] | Binding of Control serum Blood-bank to linear peptides [2]
0.3: Binding of serum 1b to looped/cyclic peptide (PEPSCAN-ELISA) [1] | Binding of serum 6 to linear peptides of protein X1 of SARS-CoV Urbani [1] | Binding of serum SARS-green to looped/cyclic peptide (PEPSCAN-ELISA) [1] | Binding of serum SARS-yellow to looped/cyclic peptide (PEPSCAN-ELISA) [1]
0.5: Binding of serum 1a to looped/cyclic peptide (PEPSCAN-ELISA) [1] | Binding of serum 1b to linear peptides of protein X1 of SARS-CoV Urbani [1] | Binding of serum 2 to linear peptides of protein X1 of SARS-CoV Urbani [1] | Binding of serum 62 to looped/cyclic peptide (PEPSCAN-ELISA) [1] | Binding of Control serum LUMC to linear peptides [2] | Binding of Control serum LUMC to looped peptides [2] | Binding of a rabbit serum to looped peptides [3]
0.2: Binding of serum 6 to looped/cyclic peptide (PEPSCAN-ELISA) [1] | Binding of serum London to linear peptides of protein X1 of SARS-CoV Urbani [1] | Binding of serum London to looped/cyclic peptide (PEPSCAN-ELISA) [1] | Binding of serum SARS-green to linear peptides of protein X1 of SARS-CoV Urbani [1] | Binding of a rabbit serum to linear peptides [3]
0.6: Binding of serum 1a to linear peptides of protein X1 of SARS-CoV Urbani [1] | Binding of serum 37 to linear peptides of protein X1 of SARS-CoV Urbani [1]

ASFRLFARTRSMWSF
0.2: Binding of serum London to looped/cyclic peptides of protein M of SARS-CoV Urbani [1] | Binding of serum SARS-green to looped/cyclic peptides of protein M of SARS-CoV Urbani [1] | Binding of serum SARS-yellow to linear peptides of protein M of SARS-CoV Urbani [1] | Rabbit serum looped peptides [3]
0.4: Binding of serum 37 to linear peptides of protein M of SARS-CoV Urbani [1] | Binding of serum 62 to linear peptides of protein M of SARS-CoV Urbani [1] | Binding of serum SARS-green to linear peptides of protein M of SARS-CoV Urbani [1]
0.5: Binding of serum 1b to looped/cyclic peptides of protein M of SARS-CoV Urbani [1] | Binding of serum 2 to linear peptides of protein M of SARS-CoV Urbani [1] | Binding of serum 2 to looped/cyclic peptides of protein M of SARS-CoV Urbani [1] | Binding of serum 37 to looped/cyclic peptides of protein M of SARS-CoV Urbani [1] | Binding of serum 62 to looped/cyclic peptides of protein M of SARS-CoV Urbani [1]
0.3: Binding of serum London to linear peptides of protein M of SARS-CoV Urbani [1] | Rabbit serum linear peptides [3]
0.6: Binding of serum 1a to looped/cyclic peptides of protein M of SARS-CoV Urbani [1] | Binding of serum 1b to linear peptides of protein M of SARS-CoV Urbani [1] | Binding of serum SARS-yellow to looped/cyclic peptides of protein M of SARS-CoV Urbani [1] | Binding of Control serum LUMC to linear peptides of the protein M of SARS-CoV Urbani [2]
0.7: Binding of serum 1a to linear peptides of protein M of SARS-CoV Urbani [1] | Binding of serum 6 to linear peptides of protein M of SARS-CoV Urbani [1] | Binding of Control Serum Blood-Bank to Looped peptides of the protein M of SARS-CoV Urbani [2] | Binding of Control serum Blood-bank to linear peptides of the protein M of SARS-CoV Urbani [2] | Binding of Control serum LUMC to looped peptides of the protein M of SARS-CoV Urbani [2]
0.9: Binding of serum 6 to looped/cyclic peptides of protein M of SARS-CoV Urbani [1]
